What all share (format): in vivo, rat
Assay [1] deals with aluminum chloride (AlCl3)-induced Alzheimer-like disease in rats. Nature of the assay: Lipid peroxidation (TBARS) in brain homogenate of AlCl3-induced Alzheimer-like rats. As for the experimental part:
(§1) The neuroprotective effects of silymarin (SM) were tested on the hippocampal tissues of aluminum chloride (AlCl3)-induced Alzheimer's-like disease in rats using biochemical, histological, and immune-histochemical examination. For this experiment, 42 mature male albino rats were divided equally into 6 groups each of 7 rats as follows: • Group I: Rats injected with distilled water and served as the control group (non-induced); • Group II: Rats injected with AlCl3; • Group III: Rats injected with AlCl3, then silymarin; • Group IV: Rats injected with AlCl3, then collagen; • Group V: Rats injected with AlCl3 then silymarin nanoparticles; • Group VI: Rats injected with AlCl3 then silymarin+collagen nanoparticles.
(§2) All of the experimental animals were sacrificed, and their brains dissected to take out the cortex section. The homogenates (10%, w/v) were then centrifuged at 10,000 rpm for 15 min and the supernatants were conserved at […] for subsequent biochemical evaluations to determine, oxidative stress markers, catalase activity, superoxide dismutase, glutathione peroxidase, glutathione reductase; and lipid peroxidation.
Lipid peroxidation was determined by measuring the thiobarbituric reactive substances (TBARS) in the homogenate where: Thiobarbituric acid+malondialdehyde Colored product+2 H2O Malondialdehyde (MDA), a major secondary product of lipid peroxidation (LPO) reacts with thiobarbituric acid (TBA), producing pink color adducts on heating. This reaction has been widely adopted as a sensitive method for lipid peroxidation that represents a major indicator of oxidative stress.
In four test tubes, homogenate supernatant (test) or water (blank) was added to 1 ml TCA and mixed well, then the solutions were centrifuged at 3000 rpm for 10 min. One milliliter of the supernatant of each of the previous four test tubes was added to 0.5 ml of TBA and heated for 30 min at 90° C. then cooled. The absorbance of samples (As) was read at 532 nm against blank.
The concentration of proteins was estimated. The levels of TBARS were calculated with the following equations:
For tissue homogenate: As: TBARS level (μmol/g protein)=(0.156×total protein×1000)×10, where; • As: absorbance of the sample (homogenate); • 0.156: molar extinction coefficient (μM−1 cm^−1); and • 10: the sample dilution factor.
(§3) Male albino rats were pretreated with one dose of the nano-formulation of 200 mg/kg/day for 15 days orally. The animals were then evaluated for neurobehavioral, infarct analysis, biochemical, histopathological studies.

The test system is the same in assay [2]. In words: Nitric oxide (nitrite) level in brain homogenate of AlCl3-induced Alzheimer-like rats. As for the experimental part: as §1, §2
Nitric oxide was rapidly oxidized to nitrite (NO^2−) and/or nitrate (NO^3−) by oxygen. In this method, nitrite was first treated with a diazotizing reagent, e.g., sulfanilamide (SA), in acidic media to form a transient diazonium salt. This intermediate was then allowed to react with a coupling reagent, N-naphthyl-ethylene diamine, to form a stable azo compound. The intense purple color of the product allows nitrite assay with high sensitivity and can be used to measure nitrite concentration as low as […]. The absorbance of this adduct at 540 nm is linearly proportional to the nitrite concentration in the sample.
The reagents included sulphanilamide (10 mM), N-(1-naphthyl) ethylenediamine, (1 mM), and standard sodium nitrite solution (100 μM). To four test tubes, each containing 1 ml sulphanilamide, 100 μl of either homogenate (test), standard solution (standard), or distilled water (blank) were added. The four test tubes were incubated for 5 minutes at room temperature. Then, 100 μl N-(1-naphthyl) ethylene diamine was added to all tubes and allowed to stand for 20 min at room temperature. The absorbance of the test and standard was read at 540 nm against blank.
The homogenate NO level was calculated according to the following equation: NO level (μM/g protein)=[As Ast×Standard concentration×10]/total proteins, where; • As: Absorbance of the sample (homogenate); • Ast: Absorbance of standard; and • 10: The sample dilution factor.
as §3

Assay [3] has the same test system. In words: Reduced glutathione (GSH) level in brain homogenate of AlCl3-induced Alzheimer-like rats. The method, then: as §1, §2
To determine homogenate reduced glutathione (GSH) level, GSH was allowed to react with 5,5′-dithio-bis-2-nitrobenzoic acid (DTNB) (equation below), known as Ellman's reagent, generating a yellow-colored 2-nitro-5-thiobenzoic acid product. DTNB+2 GSH Glutathione reductase 2-nitro-5-thiobenzoic acid
The reagents used included sulfosalicylic acid, 4%; phosphate buffer, 0.1 M, pH 7.4 and pH 8; DTNB, 10 mM, 19.8 mg in 10 ml phosphate buffer pH 8, and standard GSH, and 1 mg/dl (32.54 μM) in phosphate buffer pH 7.4.
Proteins in 0.1 ml of either homogenate supernatants (samples) were precipitated using 0.1 ml of 4% sulfosalicylic acid. The samples were kept at 4° C. for at least 1 hour and then subjected to centrifugation at 3000 rpm for 10 min at 4° C. The assay mixture contained 0.1 ml supernatant, 2.7 ml phosphate buffer (0.1 M, pH 7.4), and 0.2 ml DTNB in a total volume of 3 ml.
The standard and blank experiment was carried out as above using 0.1 ml of standard GSH and distilled water, respectively instead of samples. The absorbance of the developed yellow color of samples and standard was read against blank at 412 nm.
The tissue contents of GSH were estimated using the following equation; GSH level (μmol/g protein)=[As Ast×Standard concentration×10]/total proteins, • where; • As: Absorbance of the sample (homogenate); • Ast: Absorbance of standard; and • 10: The tissue dilution.
as §3

Assay [4] shares this test system. Nature of the assay: Catalase activity in brain homogenate of AlCl3-induced Alzheimer-like rats. As for the experimental part: as §1, §2
Catalase reacts with a known quantity of H2O2. The reaction is stopped after exactly one minute with a catalase inhibitor. In the presence of peroxidase (HRP), remaining H2O2 reacts with 3,5-Dichloro-2-hydroxybenzene sulfonic acid (DHBS) and 4-aminophenazone (AAP) to form a chromophore with a color intensity inversely proportional to the amount of catalase in the original sample.
The reagents included: • buffer (Phosphate buffer, pH 7.0 Detergent)−100 mM/L; • H2O2 (substrate and standard) (Dilute 1000 times)−500 mM/L • Chromogen—Inhibitor— • Enzyme: Peroxidase 4-Aminoantipyrine Preservative->2000/L 2 mM/L.
as §3

Setting [5] is: Table 1, single animal samples (code = group G + animal H), brain homogenate supernatant.
The mark [6] stands for this setting: Table 2, value ± spread per treatment group, Example 5, nano-formulation 200 mg/kg/day for 15 days orally.

These results are taken from patent publication US11833181B1, “Method of treating or preventing Alzheimer's Disease” (KING FAISAL UNIVERSITY, priority 2023, dated 2023).

Several values for one entry are separate records, joined by “and”; a condition that tells them apart may be missing. Equal values may be shown once. Marks after values point to notes of the source that are not given here.

Consider `[Cl][Al]([Cl])[Cl]` [AlCl3, aluminum chloride], for which the TBARS was 1.54 μmol/g protein and 1.48 μmol/g protein in assay [1] (setting [5]); 0.68 ± 0.04^bc in assay [1] (setting [6]). Further, the NO is 61.67 μM/g protein and 65.00 μM/g protein in assay [2] (setting [5]); 36.18 ± 0.58^bc in assay [2] (setting [6]). In addition, the GSH in assay [3] (setting [5]) is 12.06 μmol/g protein and 14.51 μmol/g protein; in assay [3] (setting [6]) it was 19.03 ± 3.89^bc. In addition, the Catalase was 54 U/g and 65 U/g in assay [4] (setting [5]); 84.33 ± 17.27^bc in assay [4] (setting [6]).

As for collagen, the TBARS was 0.74 μmol/g protein and 0.60 μmol/g protein in assay [1] (setting [5]); 0.71 ± 0.01^bc in assay [1] (setting [6]). For the same compound, the NO in assay [2] (setting [5]) was 37.22 μM/g protein and 36.11 μM/g protein; in assay [2] (setting [6]), 34.91 ± 0.83^bc. The GSH in assay [3] (setting [5]) was 24.78 μmol/g protein and 11.61 μmol/g protein; in assay [3] (setting [6]), 14.44 ± 0.58^b. The Catalase in assay [4] (setting [5]) is 111 U/g and 52 U/g; in assay [4] (setting [6]), 62.33 ± 1.45^b.
